Test results from paper PMC6934184, “Selective DNA-PKcs inhibition extends the therapeutic index of localized radiotherapy and chemotherapy” (The Journal of Clinical Investigation, 2019).

Molecular target: T1, PRKCH (PKC eta) (Homo sapiens, UniProt P24723)
T1 construct: purchased Thermo Fisher Scientific (Life Technologies) SelectScreen
Assay: SelectScreen Z'LYTE
Type: biochemical
In short: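 SelectScreen broad panel; activity (Z'LYTE, Adapta) plus binding formats. ATP: Km app for CSF1R Z'LYTE; 10 for CAMK1 Adapta. Readout = % per kinase.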

T1 sequence (P24723 whole entry): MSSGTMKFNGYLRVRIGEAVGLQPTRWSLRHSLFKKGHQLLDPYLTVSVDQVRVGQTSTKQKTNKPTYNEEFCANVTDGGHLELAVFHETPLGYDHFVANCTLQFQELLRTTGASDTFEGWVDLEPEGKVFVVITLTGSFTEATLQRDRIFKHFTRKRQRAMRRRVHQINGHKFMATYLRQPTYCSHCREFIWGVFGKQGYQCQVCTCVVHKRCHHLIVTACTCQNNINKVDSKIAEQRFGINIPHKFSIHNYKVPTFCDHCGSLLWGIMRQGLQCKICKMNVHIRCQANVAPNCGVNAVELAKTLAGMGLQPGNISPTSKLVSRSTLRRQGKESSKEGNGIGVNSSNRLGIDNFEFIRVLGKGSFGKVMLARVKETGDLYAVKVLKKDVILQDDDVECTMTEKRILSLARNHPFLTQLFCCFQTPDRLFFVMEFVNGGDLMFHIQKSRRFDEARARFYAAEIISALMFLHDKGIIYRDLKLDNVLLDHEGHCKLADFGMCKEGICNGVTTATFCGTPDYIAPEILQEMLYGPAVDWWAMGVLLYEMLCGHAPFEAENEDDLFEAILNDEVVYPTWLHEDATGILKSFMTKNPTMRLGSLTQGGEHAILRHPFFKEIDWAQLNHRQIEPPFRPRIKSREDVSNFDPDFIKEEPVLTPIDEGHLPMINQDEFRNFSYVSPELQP

SMILES: CN(C(=O)CN1CCOCC1)c1ccc2sc3c(-c4cccc5c(=O)cc(N6CC7CCC(C6)O7)oc45)cccc3c2c1 [NU5455]
- inhibition at 1 µM: -4.6%
